What all share (assay type): cell-based
In test [1] the target is T1, EGFR V3 (Homo sapiens, UniProt P00533, DELINS30-297G).
T1 construct: expressed in transfected cells; host or cells: BaF3 (murine pro-B), retroviral pMXs-IRES-Blasticidin
Description: BaF3 cell proliferation assay, EGFR V3 (Table A). As to conditions: potency code, 3 days, CellTiterGlo, read-out: EGFR V3 (Activity for Inhibiting EGFR). In outline: (§1)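 BaF3 + retroviral EGFR/HER2 mutant (two rounds of spinfection, 8 μg/ml polybrene); 10 μg/ml Blasticidin selection 1 wk; IL-3 withdrawn to select IL-3-independent growth. EC50 from cell proliferation.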
A general note: Cellular ATP, detected with luciferase, serves as a proxy for viable cell number.

Test [2] has as its target T2, EGFR WT (Homo sapiens, UniProt P00533). Nature of the test: Activity for inhibiting EGFR (Table A), EGFR WT. As to conditions: read-out: EGFR WT, potency code (IC50).
Test [3] concerns the target T3, HER2 S310F (Homo sapiens, UniProt P04626, S310F).
T3 construct: expressed in transfected cells; host or cells: BaF3 (murine pro-B)
Description: Activity for inhibiting HER2 (Table B), HER2 S310F. As to conditions: read-out: HER2 S310F, potency code (IC50). The procedure: EC50 values were determined with the same application.

Test [4] concerns the target T2, EGFR WT. Description: BaF3 cell proliferation assay, EGFR WT (Table A). As to conditions: potency code, 3 days, CellTiterGlo, read-out: EGFR WT (Activity for Inhibiting EGFR). The method, boiled down: as §1
For test [5], the target named is T3, HER2 S310F. Nature of the test: BaF3 cell proliferation assay, HER2 S310F (Table B). The settings on record: potency code, 3 days, CellTiterGlo, read-out: HER2 S310F (Activity for Inhibiting HER2).
Test [6] has as its target T1, EGFR V3. Description: Activity for inhibiting EGFR (Table A), EGFR V3 (EGFR-Viii). As to conditions: read-out: EGFR V3, potency code (IC50).
Test [7] has as its target T4, HER2 WT (Homo sapiens, UniProt P04626). Description: BaF3 cell proliferation assay, HER2 WT (Table B). As to conditions: potency code, 3 days, CellTiterGlo, read-out: HER2 WT (Activity for Inhibiting HER2).
Test [8] has as its target T4, HER2 WT. Nature of the test: Activity for inhibiting HER2 (Table B), HER2 WT.
The mark [9] stands for this setting: Table B, read-out: HER2 WT, potency code (IC50).
The mark [10] stands for this setting: text lists of compounds, read-out: IC50 value for inhibiting wild-type HER2.

This is an account of results in patent US11034672B1, “Tyrosine kinase inhibitor compositions, methods of making and methods of use” (Black Diamond Therapeutics, Inc., priority 2018, dated 2021).

T2 sequence (P00533 25-1210 N540K): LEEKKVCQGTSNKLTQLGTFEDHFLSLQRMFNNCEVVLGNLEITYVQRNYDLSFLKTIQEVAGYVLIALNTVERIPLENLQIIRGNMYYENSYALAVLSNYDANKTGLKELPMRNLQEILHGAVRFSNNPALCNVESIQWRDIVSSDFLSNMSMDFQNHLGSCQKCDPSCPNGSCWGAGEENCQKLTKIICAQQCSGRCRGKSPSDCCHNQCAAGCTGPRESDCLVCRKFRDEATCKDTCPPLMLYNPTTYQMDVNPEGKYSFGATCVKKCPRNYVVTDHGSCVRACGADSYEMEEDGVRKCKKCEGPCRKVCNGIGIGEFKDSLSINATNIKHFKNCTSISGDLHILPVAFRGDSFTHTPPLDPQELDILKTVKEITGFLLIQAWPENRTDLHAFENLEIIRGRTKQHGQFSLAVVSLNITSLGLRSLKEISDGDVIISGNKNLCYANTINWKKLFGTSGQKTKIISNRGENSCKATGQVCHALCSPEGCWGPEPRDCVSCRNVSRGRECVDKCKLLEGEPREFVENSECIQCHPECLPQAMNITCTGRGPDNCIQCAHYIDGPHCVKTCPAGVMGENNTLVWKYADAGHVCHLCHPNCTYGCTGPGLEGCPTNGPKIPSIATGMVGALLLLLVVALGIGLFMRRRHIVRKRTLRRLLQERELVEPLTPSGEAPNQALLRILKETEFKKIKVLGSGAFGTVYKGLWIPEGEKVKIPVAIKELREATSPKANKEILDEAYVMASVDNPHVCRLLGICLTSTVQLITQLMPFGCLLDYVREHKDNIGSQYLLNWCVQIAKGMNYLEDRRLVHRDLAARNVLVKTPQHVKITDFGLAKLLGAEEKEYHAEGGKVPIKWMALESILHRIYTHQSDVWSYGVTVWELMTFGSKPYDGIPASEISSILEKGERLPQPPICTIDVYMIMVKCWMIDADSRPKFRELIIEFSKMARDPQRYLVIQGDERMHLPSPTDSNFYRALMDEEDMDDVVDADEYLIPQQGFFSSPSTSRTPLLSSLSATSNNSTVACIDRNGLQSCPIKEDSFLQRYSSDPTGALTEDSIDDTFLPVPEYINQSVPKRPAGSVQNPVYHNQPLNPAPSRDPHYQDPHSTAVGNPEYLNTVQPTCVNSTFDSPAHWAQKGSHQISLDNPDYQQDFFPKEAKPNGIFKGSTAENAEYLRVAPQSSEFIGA
T3 sequence (P04626 23-1255 S310F): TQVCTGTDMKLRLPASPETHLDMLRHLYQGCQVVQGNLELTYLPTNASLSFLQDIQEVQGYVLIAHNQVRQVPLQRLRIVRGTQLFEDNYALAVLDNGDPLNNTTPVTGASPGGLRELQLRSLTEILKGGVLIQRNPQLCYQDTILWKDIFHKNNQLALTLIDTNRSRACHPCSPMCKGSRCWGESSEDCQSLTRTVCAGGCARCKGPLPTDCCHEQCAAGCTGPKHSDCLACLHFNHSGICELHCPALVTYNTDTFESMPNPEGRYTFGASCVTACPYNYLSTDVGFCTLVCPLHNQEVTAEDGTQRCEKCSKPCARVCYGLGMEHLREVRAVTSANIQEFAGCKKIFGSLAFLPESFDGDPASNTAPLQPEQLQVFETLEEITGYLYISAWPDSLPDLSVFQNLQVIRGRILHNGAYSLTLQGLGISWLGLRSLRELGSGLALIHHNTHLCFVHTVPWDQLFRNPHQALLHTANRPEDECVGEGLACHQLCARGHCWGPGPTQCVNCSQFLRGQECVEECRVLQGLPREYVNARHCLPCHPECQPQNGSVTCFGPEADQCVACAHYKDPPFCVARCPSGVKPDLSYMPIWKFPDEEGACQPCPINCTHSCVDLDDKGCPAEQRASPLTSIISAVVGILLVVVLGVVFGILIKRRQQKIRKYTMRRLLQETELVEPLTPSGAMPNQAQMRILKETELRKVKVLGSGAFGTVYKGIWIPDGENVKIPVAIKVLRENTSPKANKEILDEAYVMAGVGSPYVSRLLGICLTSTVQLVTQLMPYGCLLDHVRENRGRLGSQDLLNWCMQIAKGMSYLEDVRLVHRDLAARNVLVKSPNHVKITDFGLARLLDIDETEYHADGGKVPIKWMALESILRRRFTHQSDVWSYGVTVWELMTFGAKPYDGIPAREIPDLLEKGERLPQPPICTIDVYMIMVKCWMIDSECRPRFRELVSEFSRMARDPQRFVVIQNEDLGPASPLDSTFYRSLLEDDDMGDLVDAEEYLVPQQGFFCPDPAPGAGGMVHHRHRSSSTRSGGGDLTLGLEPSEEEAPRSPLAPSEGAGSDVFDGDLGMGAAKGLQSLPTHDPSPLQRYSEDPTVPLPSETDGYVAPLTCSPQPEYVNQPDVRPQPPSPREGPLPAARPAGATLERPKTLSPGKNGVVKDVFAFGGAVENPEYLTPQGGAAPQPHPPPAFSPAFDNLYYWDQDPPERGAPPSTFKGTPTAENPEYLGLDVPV
T4 sequence (P04626 23-1255): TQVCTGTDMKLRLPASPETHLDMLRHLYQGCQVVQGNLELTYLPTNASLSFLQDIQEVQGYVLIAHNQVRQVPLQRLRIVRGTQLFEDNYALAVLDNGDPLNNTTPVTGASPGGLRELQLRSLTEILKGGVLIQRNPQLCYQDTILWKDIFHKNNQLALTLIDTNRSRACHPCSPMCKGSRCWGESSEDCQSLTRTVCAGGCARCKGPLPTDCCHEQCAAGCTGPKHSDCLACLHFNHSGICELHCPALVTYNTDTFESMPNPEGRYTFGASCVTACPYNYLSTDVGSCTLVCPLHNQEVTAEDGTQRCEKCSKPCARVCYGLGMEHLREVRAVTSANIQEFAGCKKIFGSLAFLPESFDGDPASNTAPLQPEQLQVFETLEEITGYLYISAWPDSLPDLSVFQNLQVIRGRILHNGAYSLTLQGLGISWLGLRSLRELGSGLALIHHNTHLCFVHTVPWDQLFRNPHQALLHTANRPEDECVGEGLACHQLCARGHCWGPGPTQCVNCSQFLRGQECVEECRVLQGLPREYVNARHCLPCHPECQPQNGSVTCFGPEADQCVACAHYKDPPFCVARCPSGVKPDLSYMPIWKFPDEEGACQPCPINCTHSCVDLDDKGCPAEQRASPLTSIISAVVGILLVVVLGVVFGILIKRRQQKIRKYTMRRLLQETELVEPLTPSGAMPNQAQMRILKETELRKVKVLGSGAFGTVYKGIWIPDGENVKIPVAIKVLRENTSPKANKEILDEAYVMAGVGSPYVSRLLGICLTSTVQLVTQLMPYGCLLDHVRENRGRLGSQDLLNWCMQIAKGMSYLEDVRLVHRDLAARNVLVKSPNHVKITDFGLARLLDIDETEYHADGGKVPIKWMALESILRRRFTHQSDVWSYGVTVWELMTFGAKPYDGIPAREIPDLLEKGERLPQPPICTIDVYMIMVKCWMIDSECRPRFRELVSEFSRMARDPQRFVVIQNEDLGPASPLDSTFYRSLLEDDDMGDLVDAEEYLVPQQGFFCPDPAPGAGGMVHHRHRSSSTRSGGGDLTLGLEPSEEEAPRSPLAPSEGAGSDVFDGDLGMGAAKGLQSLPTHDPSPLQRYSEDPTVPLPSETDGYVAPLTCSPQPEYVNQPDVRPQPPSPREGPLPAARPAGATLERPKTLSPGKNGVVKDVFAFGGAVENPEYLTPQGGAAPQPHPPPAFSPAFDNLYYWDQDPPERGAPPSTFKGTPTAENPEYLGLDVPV
T1 sequence (P00533 with tags, fused parts or gaps DELINS30-297G): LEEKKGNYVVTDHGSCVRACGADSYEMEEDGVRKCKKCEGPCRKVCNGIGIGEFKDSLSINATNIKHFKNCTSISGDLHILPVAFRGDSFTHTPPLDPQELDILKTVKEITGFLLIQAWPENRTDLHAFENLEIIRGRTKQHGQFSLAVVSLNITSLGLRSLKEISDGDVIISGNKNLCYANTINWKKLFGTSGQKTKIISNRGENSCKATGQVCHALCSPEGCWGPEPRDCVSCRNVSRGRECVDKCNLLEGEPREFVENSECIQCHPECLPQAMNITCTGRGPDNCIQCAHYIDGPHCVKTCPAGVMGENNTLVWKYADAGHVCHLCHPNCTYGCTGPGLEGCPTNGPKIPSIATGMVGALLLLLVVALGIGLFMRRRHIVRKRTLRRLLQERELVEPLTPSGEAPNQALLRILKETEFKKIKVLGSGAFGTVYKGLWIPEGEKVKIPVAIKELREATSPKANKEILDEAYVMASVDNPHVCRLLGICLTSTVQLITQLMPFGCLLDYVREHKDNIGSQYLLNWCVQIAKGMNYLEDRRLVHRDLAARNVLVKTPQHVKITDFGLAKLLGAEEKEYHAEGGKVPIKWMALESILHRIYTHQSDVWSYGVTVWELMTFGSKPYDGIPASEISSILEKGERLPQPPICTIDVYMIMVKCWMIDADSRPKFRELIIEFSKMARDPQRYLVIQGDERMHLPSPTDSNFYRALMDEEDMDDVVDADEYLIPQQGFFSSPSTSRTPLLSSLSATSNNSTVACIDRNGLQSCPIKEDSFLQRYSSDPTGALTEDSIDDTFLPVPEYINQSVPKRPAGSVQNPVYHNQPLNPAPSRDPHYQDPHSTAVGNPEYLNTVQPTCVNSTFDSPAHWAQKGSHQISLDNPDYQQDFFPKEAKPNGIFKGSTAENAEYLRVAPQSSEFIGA

`C=CC(=O)Nc1cc2c(Nc3ccc(OCc4cccc(F)c4)c(Cl)c3)ncnc2cc1N(C)CCN(C)C` [compound 1]: the IC50 at EGFR V3 [1] was 0.1 to 0.2 µM; on EGFR WT [2] it was above 1 µM; at HER2 S310F [3], 0.5 to 1 µM; on EGFR WT [4], above 1 µM; at HER2 S310F [5] it was 0.5 to 1 µM; on EGFR V3 [6], 0.1 to 0.2 µM. Further, the IC50 on HER2 WT [7] and at HER2 WT [8] (setting [9]) was 0.05 to 0.1 µM each time.

For the compound `C=CC(=O)Nc1cc2c(Nc3ccc(OCc4cccc(F)c4)c(Cl)c3)ncnc2cc1N(C)CCN1CCOCC1` [compound 2], the IC50 on EGFR V3 [1] is 0.05 to 0.1 µM; at EGFR WT [2], above 1 µM; on HER2 S310F [3], 0.3 to 0.5 µM; at EGFR WT [4], above 1 µM; at HER2 S310F [5] it was 0.3 to 0.5 µM; at EGFR V3 [6], 0.05 to 0.1 µM. Also, the IC50 on HER2 WT [7] and on HER2 WT [8] (setting [9]) was 0.1 to 0.2 µM throughout.

With `C=CC(=O)Nc1cc2c(Nc3ccc(OCc4cccc(F)c4)c(Cl)c3)ncnc2cc1OCCCN1CCOCC1` [compound 3], the IC50 at EGFR V3 [1] lay in the range of 0.03 to 0.05 µM; at EGFR WT [2] it was 0.3 to 0.5 µM; at HER2 S310F [3], 0.02 to 0.03 µM; at EGFR WT [4], 0.3 to 0.5 µM; at HER2 S310F [5], 0.02 to 0.03 µM; on EGFR V3 [6], 0.03 to 0.05 µM. In addition, the IC50 on HER2 WT [7] is 0.01 to 0.02 µM; at HER2 WT [8] (setting [9]), 0.01 to 0.02 µM; at HER2 WT [8] (setting [10]), at most 0.02 µM.

`CC#CC(=O)Nc1cc2c(Nc3ccc(OCc4ccccn4)c(Cl)c3)ncnc2cc1N(C)CCN1CCOCC1` [compound 4]: the IC50 was in the range of 0.05 to 0.1 µM on EGFR V3 [1]; 0.2 to 0.3 µM at EGFR WT [2]; 0.05 to 0.1 µM at HER2 S310F [3]; 0.2 to 0.3 µM on EGFR WT [4]; 0.05 to 0.1 µM at HER2 S310F [5]; 0.05 to 0.1 µM on EGFR V3 [6]. The figures for the IC50 on HER2 WT [7], on HER2 WT [8] (setting [9]) and on HER2 WT [8] (setting [10]) were 0.02 to 0.03 µM, 0.02 to 0.03 µM and at most 0.05 µM, respectively.

As to `C=CC(=O)Nc1cc2c(Nc3ccc(OCc4ccccn4)c(Cl)c3)ncnc2cc1N(C)CCN1CCOCC1` [compound 7], the IC50 is 0.1 to 0.2 µM on EGFR V3 [1]; above 1 µM at EGFR WT [2]; 0.2 to 0.3 µM on HER2 S310F [3]; above 1 µM on EGFR WT [4]; 0.2 to 0.3 µM at HER2 S310F [5]; 0.1 to 0.2 µM at EGFR V3 [6]. Besides, the IC50 at HER2 WT [7] and at HER2 WT [8] (setting [9]) was 0.1 to 0.2 µM in each case.

Take `C=CC(=O)Nc1cc2c(Nc3ccc(OCc4ccccn4)cc3)ncnc2cc1OCCn1ccnc1` [compound 9]: the IC50 lay in the range of 0.05 to 0.1 µM at EGFR V3 [1]; 0.5 to 1 µM on EGFR WT [2]; 0.1 to 0.2 µM at HER2 S310F [3]; 0.5 to 1 µM on EGFR WT [4]; 0.1 to 0.2 µM on HER2 S310F [5]; 0.05 to 0.1 µM at EGFR V3 [6]. Moreover, the IC50 at HER2 WT [7] was 0.01 to 0.02 µM; at HER2 WT [8] (setting [9]) it was 0.01 to 0.02 µM; at HER2 WT [8] (setting [10]), at most 0.02 µM.

For `C=CC(=O)Nc1cc2c(Nc3ccc(OCc4ccccn4)c(Cl)c3)ncnc2cc1N(C)CCCN1CCOCC1` [compound 12], the IC50 at EGFR V3 [1] lay within 0.1 to 0.2 µM; on EGFR WT [2] it was 0.5 to 1 µM; on HER2 S310F [3], 0.1 to 0.2 µM; at EGFR WT [4] it was 0.5 to 1 µM; at HER2 S310F [5] it was 0.1 to 0.2 µM; on EGFR V3 [6], 0.1 to 0.2 µM. For the same compound, the IC50 at HER2 WT [7] and on HER2 WT [8] (setting [9]) was 0.05 to 0.1 µM in each case.

On to `C=CC(=O)Nc1cc2c(Nc3ccc(OCc4ccccn4)c(Cl)c3)ncnc2cc1OCC1CCCN1C` (centres unmarked) [compound 14], for which the IC50 fell in the range of 0.03 to 0.05 µM at EGFR V3 [1]; 0.3 to 0.5 µM on EGFR WT [2]; 0.05 to 0.1 µM at HER2 S310F [3]; 0.3 to 0.5 µM on EGFR WT [4]; 0.05 to 0.1 µM on HER2 S310F [5]; 0.03 to 0.05 µM at EGFR V3 [6]. Moreover, the IC50 was 0.01 to 0.02 µM at HER2 WT [7], 0.01 to 0.02 µM on HER2 WT [8] (setting [9]) and at most 0.02 µM on HER2 WT [8] (setting [10]).

Regarding `C=CC(=O)Nc1cc2c(Nc3ccc(OCc4ccccn4)c(Cl)c3)ncnc2cc1OC1CCNC1` (centres unmarked) [compound 15], the IC50 at EGFR V3 [1] was in the range of 0.2 to 0.3 µM; at EGFR WT [2] it was 0.3 to 0.5 µM; on HER2 S310F [3], 0.1 to 0.2 µM; at EGFR WT [4] it was 0.3 to 0.5 µM; on HER2 S310F [5], 0.1 to 0.2 µM; at EGFR V3 [6], 0.2 to 0.3 µM. The IC50 at HER2 WT [7] is 0.01 to 0.02 µM; at HER2 WT [8] (setting [9]), 0.01 to 0.02 µM; on HER2 WT [8] (setting [10]), at most 0.02 µM.
